Test system: platelets
Experiment: Platelet quality, apheresis platelets in 100% plasma, 15 μM S-59, INT-100 (~3.6 J/cm^2) or 340 nm LED 1x/2x/3x (~3.6/7.2/10.8 J/cm^2)
Type: cell-based
From the text: Additional units were illuminated with the INT-100 device at ˜3.6 J/cm^2 for comparison or maintained as an untreated control. […] As shown in the following Tables 11-19, for platelet quality parameters, results were generally similar among the controls and INT-100 and 340 nm test samples, except for the 3×340 nm dosage for certain parameters.

SMILES: Cc1oc2c(C)c3oc(=O)cc(C)c3cc2c1COCCN [S-59, 3-(2-aminoethoxymethyl)-2,5,9-trimethylfuro[3,2-g]chromen-7-one]
- Adenosine triphosphate (ATP) (340 nm (1x), D3): 4.4 mmole/10^8 platelets
- Glucose (340 nm (1x), D3): 13.49 mmol/L
- LDH (340 nm (1x), D3): 12.1 LDH IU/10^11 platelets
- Lactate (340 nm (1x), D3): 15.17 mmol/L
- Platelet counts (340 nm (1x), D3): 1391 ×10^3 cells/μL
- Platelet lysis (340 nm (1x), D3): 4.90%
- pCO2 at 37° C. (340 nm (1x), D3): 54.4 mmHg
- pH at 37° C. (340 nm (1x), D3): 6.84
- pO2 at 37° C. (340 nm (1x), D3): 11.8 mmHg
- Adenosine triphosphate (ATP) (340 nm (1x), D5): 4.0 mmole/10^8 platelets
- Glucose (340 nm (1x), D5): 10.27 mmol/L
- LDH (340 nm (1x), D5): 12.1 LDH IU/10^11 platelets
- Lactate (340 nm (1x), D5): 19.81 mmol/L
- Platelet counts (340 nm (1x), D5): 1338 ×10^3 cells/μL
- Platelet lysis (340 nm (1x), D5): 4.43%
- pCO2 at 37° C. (340 nm (1x), D5): 35.7 mmHg
- pH at 37° C. (340 nm (1x), D5): 6.70
- pO2 at 37° C. (340 nm (1x), D5): 22.5 mmHg
- Adenosine triphosphate (ATP) (340 nm (1x), D7): 3.7 mmole/10^8 platelets
- Glucose (340 nm (1x), D7): 8.32 mmol/L
- LDH (340 nm (1x), D7): 13.1 LDH IU/10^11 platelets
- Lactate (340 nm (1x), D7): 21.83 mmol/L
- Platelet counts (340 nm (1x), D7): 1391 ×10^3 cells/μL
- Platelet lysis (340 nm (1x), D7): 5.23%
- pCO2 at 37° C. (340 nm (1x), D7): 34.3 mmHg
- pH at 37° C. (340 nm (1x), D7): 6.58
- pO2 at 37° C. (340 nm (1x), D7): 16.6 mmHg
- Glucose (340 nm (1x), Post-UVA): 17.45 mmol/L
- LDH (340 nm (1x), Post-UVA): 11.3 LDH IU/10^11 platelets
- Lactate (340 nm (1x), Post-UVA): 9.05 mmol/L
- Platelet counts (340 nm (1x), Post-UVA): 1366 ×10^3 cells/μL
- Platelet lysis (340 nm (1x), Post-UVA): 4.48%
- pCO2 at 37° C. (340 nm (1x), Post-UVA): 91.9 mmHg
- pH at 37° C. (340 nm (1x), Post-UVA): 6.89
- pO2 at 37° C. (340 nm (1x), Post-UVA): 14.3 mmHg
- Adenosine triphosphate (ATP) (340 nm (1x), Pre-UVA): 4.0 mmole/10^8 platelets
- LDH (340 nm (1x), Pre-UVA): 10.5 LDH IU/10^11 platelets
- Platelet counts (340 nm (1x), Pre-UVA): 1453 ×10^3 cells/μL
- Platelet lysis (340 nm (1x), Pre-UVA): 4.30%
- pCO2 at 37° C. (340 nm (1x), Pre-UVA): 89.6 mmHg
- pH at 37° C. (340 nm (1x), Pre-UVA): 6.90
- pO2 at 37° C. (340 nm (1x), Pre-UVA): 41.8 mmHg
- Adenosine triphosphate (ATP) (340 nm (2x), D3): 4.4 mmole/10^8 platelets
- Glucose (340 nm (2x), D3): 13.63 mmol/L
- LDH (340 nm (2x), D3): 12.1 LDH IU/10^11 platelets
- Lactate (340 nm (2x), D3): 14.55 mmol/L
- Platelet counts (340 nm (2x), D3): 1317 ×10^3 cells/μL
- Platelet lysis (340 nm (2x), D3): 4.59%
- pCO2 at 37° C. (340 nm (2x), D3): 54.5 mmHg
- pH at 37° C. (340 nm (2x), D3): 6.86
- pO2 at 37° C. (340 nm (2x), D3): 14.8 mmHg
- Adenosine triphosphate (ATP) (340 nm (2x), D5): 4.1 mmole/10^8 platelets
- Glucose (340 nm (2x), D5): 10.69 mmol/L
- LDH (340 nm (2x), D5): 13.0 LDH IU/10^11 platelets
- Lactate (340 nm (2x), D5): 19.06 mmol/L
- Platelet counts (340 nm (2x), D5): 1370 ×10^3 cells/μL
- Platelet lysis (340 nm (2x), D5): 4.92%
- pCO2 at 37° C. (340 nm (2x), D5): 37.5 mmHg
- pH at 37° C. (340 nm (2x), D5): 6.72
- pO2 at 37° C. (340 nm (2x), D5): 15.3 mmHg
- Adenosine triphosphate (ATP) (340 nm (2x), D7): 3.7 mmole/10^8 platelets
- Glucose (340 nm (2x), D7): 8.34 mmol/L
- LDH (340 nm (2x), D7): 13.2 LDH IU/10^11 platelets
- Lactate (340 nm (2x), D7): 22.13 mmol/L
- Platelet counts (340 nm (2x), D7): 1376 ×10^3 cells/μL
- Platelet lysis (340 nm (2x), D7): 5.19%
- pCO2 at 37° C. (340 nm (2x), D7): 36.4 mmHg
- pH at 37° C. (340 nm (2x), D7): 6.56
- pO2 at 37° C. (340 nm (2x), D7): 14.1 mmHg
- Glucose (340 nm (2x), Post-UVA): 16.98 mmol/L
- LDH (340 nm (2x), Post-UVA): 12.1 LDH IU/10^11 platelets
- Lactate (340 nm (2x), Post-UVA): 8.77 mmol/L
- Platelet counts (340 nm (2x), Post-UVA): 1301 ×10^3 cells/μL
- Platelet lysis (340 nm (2x), Post-UVA): 4.50%
- pCO2 at 37° C. (340 nm (2x), Post-UVA): 94.1 mmHg
- pH at 37° C. (340 nm (2x), Post-UVA): 6.89
- pO2 at 37° C. (340 nm (2x), Post-UVA): 14.2 mmHg
- Adenosine triphosphate (ATP) (340 nm (2x), Pre-UVA): 3.9 mmole/10^8 platelets
- LDH (340 nm (2x), Pre-UVA): 10.5 LDH IU/10^11 platelets
- Platelet counts (340 nm (2x), Pre-UVA): 1448 ×10^3 cells/μL
- Platelet lysis (340 nm (2x), Pre-UVA): 4.30%
- pCO2 at 37° C. (340 nm (2x), Pre-UVA): 88.5 mmHg
- pH at 37° C. (340 nm (2x), Pre-UVA): 6.90
- pO2 at 37° C. (340 nm (2x), Pre-UVA): 45.9 mmHg
- Adenosine triphosphate (ATP) (340 nm (3x), D3): 3.8 mmole/10^8 platelets
- Glucose (340 nm (3x), D3): 10.87 mmol/L
- LDH (340 nm (3x), D3): 11.6 LDH IU/10^11 platelets
- Lactate (340 nm (3x), D3): 20.42 mmol/L
- Platelet counts (340 nm (3x), D3): 1372 ×10^3 cells/μL
- Platelet lysis (340 nm (3x), D3): 4.78%
- pCO2 at 37° C. (340 nm (3x), D3): 62.5 mmHg
- pH at 37° C. (340 nm (3x), D3): 6.56
- pO2 at 37° C. (340 nm (3x), D3): 27.7 mmHg
- Adenosine triphosphate (ATP) (340 nm (3x), D5): 0.4 mmole/10^8 platelets
- Glucose (340 nm (3x), D5): 1.33 mmol/L
- LDH (340 nm (3x), D5): 16.0 LDH IU/10^11 platelets
- Lactate (340 nm (3x), D5): 36.09 mmol/L
- Platelet counts (340 nm (3x), D5): 1550 ×10^3 cells/μL
- Platelet lysis (340 nm (3x), D5): 6.62%
- pCO2 at 37° C. (340 nm (3x), D5): 13.9 mmHg
- pH at 37° C. (340 nm (3x), D5): 5.57
- pO2 at 37° C. (340 nm (3x), D5): 159.5 mmHg
- Adenosine triphosphate (ATP) (340 nm (3x), D7): −0.1 mmole/10^8 platelets
- Glucose (340 nm (3x), D7): 0.43 mmol/L
- LDH (340 nm (3x), D7): 33.7 LDH IU/10^11 platelets
- Lactate (340 nm (3x), D7): 36.36 mmol/L
- Platelet counts (340 nm (3x), D7): 1474 ×10^3 cells/μL
- Platelet lysis (340 nm (3x), D7): 16.6%
- pCO2 at 37° C. (340 nm (3x), D7): 4.4 mmHg
- pH at 37° C. (340 nm (3x), D7): 5.49
- pO2 at 37° C. (340 nm (3x), D7): 178.6 mmHg
- Glucose (340 nm (3x), Post-UVA): 16.77 mmol/L
- LDH (340 nm (3x), Post-UVA): 12.1 LDH IU/10^11 platelets
- Lactate (340 nm (3x), Post-UVA): 9.48 mmol/L
- Platelet counts (340 nm (3x), Post-UVA): 1322 ×10^3 cells/μL
- Platelet lysis (340 nm (3x), Post-UVA): 4.77%
- pCO2 at 37° C. (340 nm (3x), Post-UVA): 98.1 mmHg
- pH at 37° C. (340 nm (3x), Post-UVA): 6.87
- pO2 at 37° C. (340 nm (3x), Post-UVA): 19.7 mmHg
- Adenosine triphosphate (ATP) (340 nm (3x), Pre-UVA): 3.6 mmole/10^8 platelets
- LDH (340 nm (3x), Pre-UVA): 10.5 LDH IU/10^11 platelets
- Platelet counts (340 nm (3x), Pre-UVA): 1452 ×10^3 cells/μL
- Platelet lysis (340 nm (3x), Pre-UVA): 4.30%
- pCO2 at 37° C. (340 nm (3x), Pre-UVA): 98.2 mmHg
- pH at 37° C. (340 nm (3x), Pre-UVA): 6.87
- pO2 at 37° C. (340 nm (3x), Pre-UVA): 90.9 mmHg
- Adenosine triphosphate (ATP) (INT-100, D3): 4.3 mmole/10^8 platelets
- Glucose (INT-100, D3): 13.11 mmol/L
- LDH (INT-100, D3): 11.9 LDH IU/10^11 platelets
- Lactate (INT-100, D3): 14.71 mmol/L
- Platelet counts (INT-100, D3): 1395 ×10^3 cells/μL
- Platelet lysis (INT-100, D3): 4.69%
- pCO2 at 37° C. (INT-100, D3): 55.8 mmHg
- pH at 37° C. (INT-100, D3): 6.82
- pO2 at 37° C. (INT-100, D3): 18.9 mmHg
- Adenosine triphosphate (ATP) (INT-100, D5): 4.0 mmole/10^8 platelets
- Glucose (INT-100, D5): 10.26 mmol/L
- LDH (INT-100, D5): 11.6 LDH IU/10^11 platelets
- Lactate (INT-100, D5): 20.18 mmol/L
- Platelet counts (INT-100, D5): 1400 ×10^3 cells/μL
- Platelet lysis (INT-100, D5): 4.50%
- pCO2 at 37° C. (INT-100, D5): 36.4 mmHg
- pH at 37° C. (INT-100, D5): 6.67
- pO2 at 37° C. (INT-100, D5): 20.1 mmHg
- Adenosine triphosphate (ATP) (INT-100, D7): 3.5 mmole/10^8 platelets
- Glucose (INT-100, D7): 8.19 mmol/L
- LDH (INT-100, D7): 12.6 LDH IU/10^11 platelets
- Lactate (INT-100, D7): 23.31 mmol/L
- Platelet counts (INT-100, D7): 1439 ×10^3 cells/μL
- Platelet lysis (INT-100, D7): 5.18%
- pCO2 at 37° C. (INT-100, D7): 35.0 mmHg
- pH at 37° C. (INT-100, D7): 6.54
- pO2 at 37° C. (INT-100, D7): 19.7 mmHg
- Glucose (INT-100, Post-UVA): 17.24 mmol/L
- LDH (INT-100, Post-UVA): 11.5 LDH IU/10^11 platelets
- Lactate (INT-100, Post-UVA): 8.85 mmol/L
- Platelet counts (INT-100, Post-UVA): 1415 ×10^3 cells/μL
- Platelet lysis (INT-100, Post-UVA): 4.74%
- pCO2 at 37° C. (INT-100, Post-UVA): 91.4 mmHg
- pH at 37° C. (INT-100, Post-UVA): 6.89
- pO2 at 37° C. (INT-100, Post-UVA): 36.4 mmHg
- Adenosine triphosphate (ATP) (INT-100, Pre-UVA): 3.9 mmole/10^8 platelets
- LDH (INT-100, Pre-UVA): 10.3 LDH IU/10^11 platelets
- Platelet counts (INT-100, Pre-UVA): 1481 ×10^3 cells/μL
- Platelet lysis (INT-100, Pre-UVA): 4.30%
- pCO2 at 37° C. (INT-100, Pre-UVA): 101.1 mmHg
- pH at 37° C. (INT-100, Pre-UVA): 6.87
- pO2 at 37° C. (INT-100, Pre-UVA): 98.4 mmHg

From patent US12214092B2, “Systems and methods for treating biological fluids” (Cerus Corporation, priority 2017, dated 2025)
